Residues, ends and D or L forms follow the SMILES beside them.
Key:
PIK3R3-C SH2 domain = molecular target: T1, PIK3R3-C SH2 domain (Homo sapiens, UniProt Q92569); assay: biochemical; format: binding; conditions: high-confidence ErbB interactions
T1 construct: thioredoxin; made in house; host or cells: E. coli BL21(DE3)pLysS

[1] = molecular target: T2, PIK3R1-NC tandem SH2 domains (Homo sapiens, UniProt P27986); assay: FP saturation binding assay; conditions: high-confidence ErbB interactions
T2 construct: the tandem protein was included in our analysis with all internal amino acids linking the domains; 6X His; thioredoxin; made in house; host or cells: E. coli BL21(DE3)pLysS
Method in brief: (§1)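 Rhodamine-labeled phosphopeptides (10 nM final) titrated with SH2 domain protein (0.002–10 µM, 12 points) in 20 mM HEPES, 100 mM KCl, 0.1% Tween-20, 5 mM DTT, pH 7.8; 20 min, room temperature, dark. FP read at 530/555 nm; KD fitted by nonlinear regression after thioredoxin background correction and outlier removal.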

PTPN11-N SH2 domain = molecular target: T3, PTPN11-N SH2 domain (Homo sapiens, UniProt Q06124); assay: FP saturation binding assay
T3 sequence (Q06124 6-102 limits assumed): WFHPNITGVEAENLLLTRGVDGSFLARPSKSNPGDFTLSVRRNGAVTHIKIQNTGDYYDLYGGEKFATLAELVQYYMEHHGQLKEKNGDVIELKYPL

SHC1-PTB domain = molecular target: T4, SHC1-PTB domain (Homo sapiens, UniProt P29353); assay: FP saturation binding assay
T4 sequence (P29353 156-339 limits assumed): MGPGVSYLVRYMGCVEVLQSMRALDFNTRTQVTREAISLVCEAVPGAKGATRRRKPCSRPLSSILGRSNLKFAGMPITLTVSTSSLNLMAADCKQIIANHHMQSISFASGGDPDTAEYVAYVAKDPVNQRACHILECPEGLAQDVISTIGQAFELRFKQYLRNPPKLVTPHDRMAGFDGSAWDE

VAV3 SH2 domain = molecular target: T5, VAV3 SH2 domain (Homo sapiens, UniProt Q9UKW4); assay: FP saturation binding assay; conditions: protein VAV3, high-confidence ErbB interactions, mean of replicate hits
T5 construct: 6X His; thioredoxin; made in house; host or cells: BL21(DE3)pLysS E. coli
Method in brief: as §1

GRB7 SH2 domain = GRB7 SH2 domain (Homo sapiens, UniProt Q14451); assay: FP saturation binding assay
Sequence of GRB7 SH2 domain (Q14451 431-527 limits assumed): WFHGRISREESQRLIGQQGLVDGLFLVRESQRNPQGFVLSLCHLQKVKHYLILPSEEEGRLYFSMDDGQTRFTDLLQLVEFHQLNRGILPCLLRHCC

T2 sequence (P27986 333-718 limits assumed): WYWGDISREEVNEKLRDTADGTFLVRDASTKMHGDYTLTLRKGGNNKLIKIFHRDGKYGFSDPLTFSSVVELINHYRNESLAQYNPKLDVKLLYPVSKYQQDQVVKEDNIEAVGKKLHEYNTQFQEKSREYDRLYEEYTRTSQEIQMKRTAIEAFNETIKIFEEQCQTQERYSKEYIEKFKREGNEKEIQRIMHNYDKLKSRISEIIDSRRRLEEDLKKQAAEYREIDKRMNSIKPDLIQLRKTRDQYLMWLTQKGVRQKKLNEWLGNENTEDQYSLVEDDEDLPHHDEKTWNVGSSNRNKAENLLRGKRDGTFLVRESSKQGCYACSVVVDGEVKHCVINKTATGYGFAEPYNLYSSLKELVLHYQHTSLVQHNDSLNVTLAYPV
T5 sequence (Q9UKW4 672-766 limits assumed): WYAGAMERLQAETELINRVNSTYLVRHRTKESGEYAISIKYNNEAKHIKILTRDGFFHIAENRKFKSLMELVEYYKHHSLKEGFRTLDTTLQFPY

For `CC(C)C[C@H](NC(=O)[C@H](Cc1ccc(OP(=O)(O)O)cc1)NC(=O)[C@H](CCC(=O)O)NC(=O)[C@H](CCC(=O)O)NC(=O)[C@H](C)NC(=O)[C@@H](N)CC(=O)O)C(=O)N[C@H](C(=O)N1CCC[C@H]1C(=O)N[C@@H](CCC(N)=O)C(=O)N[C@@H](CCC(N)=O)C(=O)NCC(=O)N[C@@H](Cc1ccccc1)C(=O)N[C@@H](CC(=O)O)C(=O)O)C(C)C` [ErbB2 1023 13-mer] (HELM PEPTIDE1{D.A.E.E.[O=C([C@H](Cc1ccc(OP(=O)(O)O)cc1)N[*:1])[*:2]].L.V.P.Q.Q.G.F.D}$$$$V2.0), the Kd (PIK3R3-C SH2 domain; Protein PIK3R3-C, FP saturation binding, mean over replicate hits) was 5.8 µM and the Kd ([1]; Protein PIK3R1-NC, FP saturation binding, mean over replicate hits) was 7.14 µM.
`CC(C)[C@H](NC(=O)[C@H](CC(=O)O)NC(=O)[C@@H]1CCCN1C(=O)[C@H](CCC(N)=O)NC(=O)[C@H](CC(N)=O)NC(=O)[C@@H](NC(=O)[C@H](Cc1ccc(OP(=O)(O)O)cc1)NC(=O)[C@H](CCC(=O)O)NC(=O)[C@@H]1CCCN1C(=O)[C@H](CCC(N)=O)NC(=O)[C@@H]1CCCN1)C(C)C)C(=O)N[C@@H](CCCNC(=N)N)C(=O)N[C@@H](CC(=O)O)C(=O)O` [ErbB2 1139 13-mer] (HELM PEPTIDE1{P.Q.P.E.[O=C([C@H](Cc1ccc(OP(=O)(O)O)cc1)N[*:1])[*:2]].V.N.Q.P.D.V.R.D}$$$$V2.0) gave a Kd (PTPN11-N SH2 domain) of 8.86 µM.
In the case of `CC(C)C[C@H](NC(=O)[C@H](CC(N)=O)NC(=O)[C@@H](N)CC(=O)O)C(=O)N[C@@H](Cc1ccc(O)cc1)C(=O)N[C@@H](Cc1ccc(OP(=O)(O)O)cc1)C(=O)N[C@@H](Cc1c[nH]c2ccccc12)C(=O)N[C@@H](CC(=O)O)C(=O)N[C@@H](CCC(N)=O)C(=O)N[C@@H](CC(=O)O)C(=O)N1CCC[C@H]1C(=O)N1CCC[C@H]1C(=O)N[C@@H](CCC(=O)O)C(=O)N[C@@H](CC(=O)O)C(=O)O` [ErbB2 1222 13-mer] (HELM PEPTIDE1{D.N.L.Y.[O=C([C@H](Cc1ccc(OP(=O)(O)O)cc1)N[*:1])[*:2]].W.D.Q.D.P.P.E.D}$$$$V2.0), the Kd (SHC1-PTB domain) is reported as 2.96 µM.
Compound `CSCC[C@H](NC(=O)[C@H](Cc1ccc(OP(=O)(O)O)cc1)NC(=O)[C@H](CCC(=O)O)NC(=O)[C@H](Cc1ccc(O)cc1)NC(=O)CNC(=O)[C@@H](N)CC(C)C)C(=O)N[C@@H](CC(=O)O)C(=O)N[C@H](C(=O)NCC(=O)N[C@@H](CO)C(=O)N[C@@H](CC(=O)O)C(=O)N[C@@H](CC(C)C)C(=O)N[C@@H](CC(=O)O)C(=O)O)C(C)C` [ErbB3 1224 13-mer] (HELM PEPTIDE1{L.G.Y.E.[O=C([C@H](Cc1ccc(OP(=O)(O)O)cc1)N[*:1])[*:2]].M.D.V.G.S.D.L.D}$$$$V2.0) has a Kd (PTPN11-N SH2 domain) of 4.8 µM, a Kd (PIK3R3-C SH2 domain; protein PIK3R3-C, FP, mean of replicate hits) of 6.11 µM and a Kd (SHC1-PTB domain) of 5.27 µM.
In the case of `CSCC[C@H](NC(=O)[C@H](CCC(=O)O)NC(=O)[C@H](CCC(=O)O)NC(=O)[C@H](Cc1ccc(OP(=O)(O)O)cc1)NC(=O)CNC(=O)[C@H](CCC(N)=O)NC(=O)[C@H](CCC(=O)O)NC(=O)[C@@H](N)CO)C(=O)N[C@@H](CCCNC(=N)N)C(=O)N[C@@H](C)C(=O)N[C@@H](Cc1ccccc1)C(=O)N[C@@H](CCC(N)=O)C(=O)N[C@@H](CC(=O)O)C(=O)O` [ErbB3 1289 13-mer] (HELM PEPTIDE1{S.E.Q.G.[O=C([C@H](Cc1ccc(OP(=O)(O)O)cc1)N[*:1])[*:2]].E.E.M.R.A.F.Q.D}$$$$V2.0), the Kd (VAV3 SH2 domain) is reported as 8.4 µM.
Work on `CSCC[C@H](NC(=O)[C@H](Cc1ccc(OP(=O)(O)O)cc1)NC(=O)CNC(=O)[C@H](CCC(=O)O)NC(=O)[C@H](CCC(=O)O)NC(=O)[C@H](CC(=O)O)NC(=O)[C@H](CC(C)C)NC(=O)[C@H](CCC(=O)O)NC(=O)CNC(=O)[C@H](CCCNC(=N)N)NC(=O)[C@@H]1CCCN1)C(=O)N[C@H](C(=O)N1CCC[C@H]1C(=O)N[C@@H](CCSC)C(=O)N[C@@H](CCCNC(=N)N)C(=O)N[C@@H](CC(=O)O)C(=O)N[C@@H](CCCCN)C(=O)N[C@@H](CC(=O)O)C(=O)O)[C@@H](C)O` [ErbB4 1150 18-mer] (HELM PEPTIDE1{P.R.G.E.L.D.E.E.G.[O=C([C@H](Cc1ccc(OP(=O)(O)O)cc1)N[*:1])[*:2]].M.T.P.M.R.D.K.D}$$$$V2.0) yielded a Kd ([1]; protein PIK3R1-NC, FP, mean of replicate hits) of 5.81 µM and a Kd (VAV3 SH2 domain) of 0.18 µM.
With `CC(C)C[C@H](NC(=O)[C@H](Cc1ccc(OP(=O)(O)O)cc1)NC(=O)[C@H](CC(C)C)NC(=O)[C@@H]1CCCN1C(=O)[C@H](CCC(=O)O)NC(=O)[C@H](CC(N)=O)NC(=O)[C@@H](NC(=O)[C@H](Cc1ccc(O)cc1)NC(=O)[C@H](CCC(=O)O)NC(=O)[C@H](CC(=O)O)NC(=O)[C@@H](N)CCC(=O)O)C(C)C)C(=O)N[C@@H](CC(N)=O)C(=O)N[C@H](C(=O)N[C@@H](Cc1ccccc1)C(=O)N[C@@H](C)C(=O)N[C@@H](CC(N)=O)C(=O)N[C@H](C(=O)N[C@@H](CC(=O)O)C(=O)O)[C@@H](C)O)[C@@H](C)O` [ErbB4 1208 18-mer] (HELM PEPTIDE1{E.D.E.Y.V.N.E.P.L.[O=C([C@H](Cc1ccc(OP(=O)(O)O)cc1)N[*:1])[*:2]].L.N.T.F.A.N.T.D}$$$$V2.0) the Kd (GRB7 SH2 domain; Mean KD, protein GRB7, high-confidence ErbB interactions, mean of replicate hits) was 9.99 µM.
With DNLYpYWDQDPPEd [ErbB2 pY1222] the “interaction with GRB7 on the FP platform” value (GRB7 SH2 domain; peptides queried on both FP and PM platforms) was “only displayed interactions with GRB7 from the PM platform”.
